Target: human cannabinoid CB2 receptor (Homo sapiens, UniProt P34972)
Assay: Cannabinoid CB2 receptor agonist activity (yeast reporter assay, FDGlu fluorescence)
Assay type: cell-based
Conditions: for EC50: EC50 value at the cloned human cannabinoid CB2 receptor; for Emax: read-out: efficacy value (Emax relative to HU210) at the cloned human cannabinoid CB2 receptor
Outline: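 S. cerevisiae MMY23 expressing human CB2 with a Gpa1/Gαi3 chimeric G-protein, grown 24 h at 30 °C with agonist (1% DMSO) in selective media containing 10 mM 3-aminotriazole and FDGlu, pH 7.0. Fluorescein fluorescence (485/535 nm) fitted by four-parameter curve; Emax and EMR relative to HU210.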

Sequence of human cannabinoid CB2 receptor (P34972 whole entry): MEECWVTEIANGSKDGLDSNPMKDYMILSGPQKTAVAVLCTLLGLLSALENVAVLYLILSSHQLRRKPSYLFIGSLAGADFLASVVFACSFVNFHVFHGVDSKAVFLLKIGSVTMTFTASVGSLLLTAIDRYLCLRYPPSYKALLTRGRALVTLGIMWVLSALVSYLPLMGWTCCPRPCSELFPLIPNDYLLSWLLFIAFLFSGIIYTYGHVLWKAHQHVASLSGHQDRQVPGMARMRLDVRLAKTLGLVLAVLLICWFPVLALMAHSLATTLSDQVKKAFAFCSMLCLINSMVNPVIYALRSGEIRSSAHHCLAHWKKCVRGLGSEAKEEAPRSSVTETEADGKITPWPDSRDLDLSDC

O=C(NCC1CCOCC1)c1cnc(Nc2cc(F)cc(F)c2)nc1C(F)(F)F [Example 214, 2-(3,5-Difluorophenylamino)-4-trifluoromethyl-pyrimidine-5-carboxylic acid (tetrahydro-pyran-4-ylmethyl)-amide]
EC50: 20 to 300 nM
Emax: > 50%

O=C(NCC1CCOCC1)c1cnc(Nc2ccc(F)c(Cl)c2)nc1C(F)(F)F [Example 215, 2-(4-Fluoro-3-chloro-phenylamino)-4-trifluoromethyl-pyrimidine-5-carboxylic acid (tetrahydro-pyran-4-ylmethyl)-amide]
EC50: 20 to 300 nM
Emax: > 50%

O=C(NCC1CCOCC1)c1cnc(Nc2ccc(OC(F)(F)F)c(Cl)c2)nc1C(F)(F)F [Example 216, 2-(4-Trifluoromethoxy-3-chloro-phenylamino)-4-trifluoromethyl-pyrimidine-5-carboxylic acid (tetrahydro-pyran-4-ylmethyl)-amide]
EC50: 20 to 300 nM
Emax: > 50%

O=C(NCC1CCOCC1)c1cnc(Nc2ccc(C(F)(F)F)c(F)c2)nc1C(F)(F)F [Example 218, 2-(4-Trifluoromethyl-3-fluoro-phenylamino)-4-trifluoromethyl-pyrimidine-5-carboxylic acid (tetrahydro-pyran-4-ylmethyl)-amide]
EC50: 20 to 300 nM
Emax: > 50%

N#Cc1ccc(Nc2ncc(C(=O)NCC3CCCC3)c(C(F)(F)F)n2)cc1Cl [Example 219, 2-(4-Cyano-3-chloro-phenylamino)-4-trifluoromethyl-pyrimidine-5-carboxylic acid cyclopentylmethyl-amide]
EC50: 20 to 300 nM
Emax: > 50%

O=C(NC1CCS(=O)(=O)CC1)c1cnc(Nc2ccc(Cl)cc2Cl)nc1C(F)(F)F [Example 220, 2-(2,4-Dichloro-phenylamino)-4-trifluoromethyl-pyrimidine-5-carboxylic acid (1,1-dioxo-hexahydro-1l^6-thiopyran-4-yl)-amide]
EC50: 20 to 300 nM
Emax: > 50%

O=C(NCC1CCCCC1)c1cnc(Nc2ccc(F)cc2F)nc1C(F)(F)F [Example 221, 2-(2,4-Difluoro-phenylamino)-4-trifluoromethyl-pyrimidine-5-carboxylic acid cyclohexylmethyl-amide]
EC50: 20 to 300 nM
Emax: > 50%

O=C(NCC1CCCCC1)c1cnc(Nc2ccc(F)cc2Cl)nc1C(F)(F)F [Example 222, 2-(2-Chloro-4-fluoro-phenylamino)-4-trifluoromethyl-pyrimidine-5-carboxylic acid cyclohexylmethyl-amide]
EC50: 20 to 300 nM
Emax: > 50%

O=C(NCC1CCC1)c1cnc(Nc2ccc(F)cc2F)nc1C(F)(F)F [Example 223, 2-(2,4-Difluoro-phenylamino)-4-trifluoromethyl-pyrimidine-5-carboxylic acid cyclobutylmethyl-amide]
EC50: 20 to 300 nM
Emax: > 50%

O=C(NCC1CCC1)c1cnc(Nc2ccc(F)cc2Cl)nc1C(F)(F)F [Example 224, 2-(2-Chloro-4-fluoro-phenylamino)-4-trifluoromethyl-pyrimidine-5-carboxylic acid cyclobutylmethyl-amide]
EC50: 20 to 300 nM
Emax: > 50%

O=C(NCC1CCCCC1)c1cnc(Nc2ccc(Br)cc2Cl)nc1C(F)(F)F [Example 225, 2-(2-Chloro-4-bromo-phenylamino)-4-trifluoromethyl-pyrimidine-5-carboxylic acid cyclohexylmethyl-amide]
EC50: 20 to 300 nM
Emax: > 50%

O=C(NCC1CCCCC1)c1cnc(Nc2ccc(Cl)cc2F)nc1C(F)(F)F [Example 226, 2-(2-Fluoro-4-chloro-phenylamino)-4-trifluoromethyl-pyrimidine-5-carboxylic acid cyclohexylmethyl-amide]
EC50: 20 to 300 nM
Emax: > 50%

O=C(NCC1CCC1)c1cnc(Nc2ccc(Br)cc2Cl)nc1C(F)(F)F [Example 227, 2-(2-Chloro-4-bromo-phenylamino)-4-trifluoromethyl-pyrimidine-5-carboxylic acid cyclobutylmethyl-amide]
EC50: 20 to 300 nM
Emax: > 50%

O=C(NCC1CCC1)c1cnc(Nc2ccc(Br)cc2F)nc1C(F)(F)F [Example 229, 2-(2-Fluoro-4-bromo-phenylamino)-4-trifluoromethyl-pyrimidine-5-carboxylic acid cyclobutylmethyl-amide]
EC50: 20 to 300 nM
Emax: > 50%

O=C(NCC1CCC1)c1cnc(Nc2ccc(Cl)cc2Br)nc1C(F)(F)F [Example 230, 2-(2-Bromo-4-chloro-phenylamino)-4-trifluoromethyl-pyrimidine-5-carboxylic acid cyclobutylmethyl-amide]
EC50: 20 to 300 nM
Emax: > 50%

O=C(NCC1CCCCC1)c1cnc(Nc2ccc(Br)cc2F)nc1C(F)(F)F [Example 231, 2-(2-Fluoro-4-bromo-phenylamino)-4-trifluoromethyl-pyrimidine-5-carboxylic acid cyclohexylmethyl-amide]
EC50: 20 to 300 nM
Emax: > 50%

O=C(NCC1CCOCC1)c1cnc(Nc2ccc(Br)cc2F)nc1C(F)(F)F [Example 232, 2-(2-Fluoro-4-bromo-phenylamino)-4-trifluoromethyl-pyrimidine-5-carboxylic acid (tetrahydro-pyran-4-ylmethyl)-amide]
EC50: 20 to 300 nM
Emax: > 50%

O=C(NCC1CCOCC1)c1cnc(Nc2ccc(F)cc2Cl)nc1C(F)(F)F [Example 233, 2-(2-Chloro-4-fluoro-phenylamino)-4-trifluoromethyl-pyrimidine-5-carboxylic acid (tetrahydro-pyran-4-ylmethyl)-amide]
EC50: 20 to 300 nM
Emax: > 50%

O=C(NCC1CCOCC1)c1cnc(Nc2ccc(Br)cc2Cl)nc1C(F)(F)F [Example 234, 2-(2-Chloro-4-bromo-phenylamino)-4-trifluoromethyl-pyrimidine-5-carboxylic acid (tetrahydro-pyran-4-ylmethyl)-amide]
EC50: 20 to 300 nM
Emax: > 50%

N#Cc1ccc(Nc2ncc(C(=O)NCC3CCOCC3)c(C(F)(F)F)n2)c(Cl)c1 [Example 235, 2-(2-Chloro-4-cyano-phenylamino)-4-trifluoromethyl-pyrimidine-5-carboxylic acid (tetrahydro-pyran-4-ylmethyl)-amide]
EC50: 20 to 300 nM
Emax: > 50%

O=C(NCC1CCOCC1)c1cnc(Nc2ccc(C(F)(F)F)cc2Cl)nc1C(F)(F)F [Example 236, 2-(2-Chloro-4-trifluoromethyl-phenylamino)-4-trifluoromethyl-pyrimidine-5-carboxylic acid (tetrahydro-pyran-4-ylmethyl)-amide]
EC50: 20 to 300 nM
Emax: > 50%

N#Cc1ccc(Nc2ncc(C(=O)NCC3CCCCC3)c(C(F)(F)F)n2)c(Cl)c1 [Example 237, 2-(2-Chloro-4-cyano-phenylamino)-4-trifluoromethyl-pyrimidine-5-carboxylic acid cyclohexylmethyl-amide]
EC50: 20 to 300 nM
Emax: > 50%

O=C(NCC1CCCCC1)c1cnc(Nc2ccc(Cl)cc2Br)nc1C(F)(F)F [Example 238, 2-(2-Bromo-4-chloro-phenylamino)-4-trifluoromethyl-pyrimidine-5-carboxylic acid cyclohexylmethyl-amide]
EC50: 20 to 300 nM
Emax: > 50%

O=C(NCC1CCOCC1)c1cnc(Nc2ccc(Cl)cc2Br)nc1C(F)(F)F [Example 239, 2-(2-Bromo-4-chloro-phenylamino)-4-trifluoromethyl-pyrimidine-5-carboxylic acid (tetrahydro-pyran-4-ylmethyl)-amide]
EC50: 20 to 300 nM
Emax: > 50%

O=C(NCC1CC1)c1cnc(Nc2cccc(Br)c2)nc1C(F)(F)F [Example 240, 2-(3-Bromophenylamino)-4-trifluoromethyl-pyrimidine-5-carboxylic acid cyclopropylmethyl-amide]
EC50: 20 to 300 nM
Emax: > 50%

O=C(NCC1CC1)c1cnc(Nc2ccc(Cl)cc2Cl)nc1C(F)(F)F [Example 241, 2-(2,4-Dichlorophenylamino)-4-trifluoromethylpyrimidine-5-carboxylic acid cyclopropylmethyl-amide]
EC50: 20 to 300 nM
Emax: > 50%

O=C(NCC1CCCCC1)c1cnc(Nc2cccc(F)c2F)nc1C(F)(F)F [Example 242, 2-(2,3-Difluorophenylamino)-4-trifluoromethyl-pyrimidine-5-carboxylic acid cyclohexylmethyl-amide]
EC50: 20 to 300 nM
Emax: > 50%

O=C(NCC1CCCCC1)c1cnc(Nc2cccc(C(F)(F)F)c2F)nc1C(F)(F)F [Example 243, 2-(2-Fluoro-3-trifluoromethyl-phenylamino)-4-trifluoromethyl-pyrimidine-5-carboxylic acid cyclohexylmethyl-amide]
EC50: 20 to 300 nM
Emax: > 50%

Cc1ccc(Nc2ncc(C(=O)NCC3CCCCC3)c(C(F)(F)F)n2)c(Cl)c1 [Example 244, 2-(2-Chloro-4-methylphenylamino)-4-trifluoromethyl-pyrimidine-5-carboxylic acid cyclohexylmethyl-amide]
EC50: 20 to 300 nM
Emax: > 50%

COc1cc(Nc2ncc(C(=O)NCC3CCCCC3)c(C(F)(F)F)n2)ccc1Cl [Example 245, 2-(4-Chloro-3-methoxyphenylamino)-4-trifluoromethyl-pyrimidine-5-carboxylic acid cyclohexylmethyl-amide]
EC50: 20 to 300 nM
Emax: > 50%

Cc1ccc(Cl)cc1Nc1ncc(C(=O)NCC2CCCCC2)c(C(F)(F)F)n1 [Example 246, 2-(5-Chloro-2-methylphenylamino)-4-trifluoromethyl-pyrimidine-5-carboxylic acid cyclohexylmethyl-amide]
EC50: 20 to 300 nM
Emax: > 50%

O=C(NCC1CCCC1)c1cnc(Nc2cccc(Cl)c2F)nc1C(F)(F)F [Example 248, 2-(3-Chloro-2-fluoro-phenylamino)-4-trifluoromethyl-pyrimidine-5-carboxylic acid cyclopentylmethyl-amide]
EC50: 20 to 300 nM
Emax: > 50%

Source: US20080132505A1 (Glaxo Group Limited, priority 2004, published 2008)
